Experiments:
Test in all cases: Bliss excess, mean over the matrix (fraction); higher = more synergy
[1] = test system: KNS-62 (Squamous Cell Lung Carcinoma)
Outline: (§1)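 Bliss excess equals the observed combination effect minus the expected value EA + EB − EA·EB, where EA and EB are the effects of each agent alone. Combination Emax is the second-highest inhibition within the matrix. Inhibition was scaled from CellTiter-Glo 2.0 luminescence, with 0 set by vehicle wells and 1 by blank wells, after 72 hours of two-drug dosing of cells plated in 1536-well plates.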

[2] = test system: L-363 (Plasma Cell Myeloma)
Outline: as §1

[3] = test system: MDA-MB-175-VII (Breast Carcinoma)
Outline: as §1

[4] = test system: RPMI-8402 (T-Lymphoblastic Leukemia)
Outline: as §1

[5] = test system: SBC-3 (Small Cell Lung Carcinoma)
Outline: as §1

[6] = test system: NCI-H1048 (Small Cell Lung Carcinoma)
Outline: as §1

[7] = test system: HT-1197 (Bladder Carcinoma)
Outline: as §1

[8] = test system: SNU-1 (Gastric Carcinoma)
Outline: as §1

[9] = test system: NCI-H1944 (Lung Adenocarcinoma)
Outline: as §1

[10] = test system: OCI-M1 (Acute Myeloid Leukemia)
Outline: as §1

[11] = test system: BT-474 (Breast Carcinoma)
Outline: as §1

[12] = test system: NCI-H2170 (Squamous Cell Lung Carcinoma)
Outline: as §1

[13] = test system: GRANTA-519 (B-Cell Non-Hodgkin's Lymphoma)
Outline: as §1

[14] = test system: ATN-1 (T-Lymphoblastic Leukemia)
Outline: as §1

[15] = test system: C2BBe1 (Colorectal Carcinoma)
Outline: as §1

SK-N-DZ (Neuroblastoma) = test system: SK-N-DZ (Neuroblastoma)
Outline: as §1

**Q.** Which Bliss excess [1] does the source give for Cc1cc2ncnn2cc1Nc1ncc2c(n1)n(C1CCOCC1)c(=O)n2C [AZD7648] + COc1cc([C@@H]2c3cc4c(cc3[C@@H](O[C@@H]3O[C@@H]5CO[C@@H](C)O[C@H]5[C@H](O)[C@H]3O)[C@H]3COC(=O)[C@H]23)OCO4)cc(OC)c1O [Etoposide] (first compound max 10 µM, 7x7, partner max 10 µM) here?
**A.** 0.056

**Q.** And the Bliss excess [2]?
**A.** 0.0582

**Q.** What about the Bliss excess [3] of the same compound?
**A.** 0.0478

**Q.** And the Bliss excess [4]?
**A.** 0.0847

**Q.** What about the Bliss excess [5] of the same compound?
**A.** 0.119

**Q.** For Cc1nc(Nc2ncc(C(=O)Nc3c(C)cccc3Cl)s2)cc(N2CCN(CCO)CC2)n1 [Dasatinib] + CC(=O)Nc1cccc(-n2c(=O)n(C3CC3)c(=O)c3c(Nc4ccc(I)cc4F)n(C)c(=O)c(C)c32)c1 [Trametinib] (first compound max 2 µM, 7x7, partner max 1 µM), which Bliss excess [1] is on record?
**A.** -0.0815

**Q.** What about the Bliss excess [2] of the same compound?
**A.** -0.0221

**Q.** What about the Bliss excess [3] of the same compound?
**A.** -0.132

**Q.** And the Bliss excess [6]?
**A.** -0.0669

**Q.** What about the Bliss excess [7] of the same compound?
**A.** -0.0524

**Q.** And the Bliss excess [4]?
**A.** 0.0053

**Q.** And the Bliss excess [8]?
**A.** -0.0263

**Q.** And the Bliss excess [9]?
**A.** 0.0343

**Q.** And the Bliss excess [10]?
**A.** 0.0346

**Q.** And the Bliss excess [11]?
**A.** -0.0493

**Q.** And the Bliss excess [12]?
**A.** -0.0593

**Q.** What about the Bliss excess [5] of the same compound?
**A.** 0.0453

**Q.** And the Bliss excess [13]?
**A.** -0.0711

**Q.** What about the Bliss excess [14] of the same compound?
**A.** -0.089

**Q.** And the Bliss excess [15]?
**A.** 0.0323

**Q.** And the Bliss excess (SK-N-DZ (Neuroblastoma))?
**A.** -0.0332

**Q.** For COc1cc2ncnc(Nc3ccc(F)c(Cl)c3)c2cc1OCCCN1CCOCC1 [Gefitinib] + CC(C)n1c(=O)n(C)c2cnc3cc(F)c(-c4ccc(OCCCN5CCCCC5)nc4)cc3c21 [AZD1390] (first compound max 10 µM, 7x7, partner max 0.3 µM), which Bliss excess [1] is on record?
**A.** -0.0783

**Q.** And the Bliss excess [2]?
**A.** -0.0135

**Q.** What about the Bliss excess [3] of the same compound?
**A.** -0.0191

**Q.** And the Bliss excess [6]?
**A.** -0.0556

**Q.** And the Bliss excess [7]?
**A.** -0.0549

**Q.** What about the Bliss excess [4] of the same compound?
**A.** -0.0801

**Q.** And the Bliss excess [8]?
**A.** -0.0701

**Q.** And the Bliss excess [9]?
**A.** -0.0668

**Q.** And the Bliss excess [10]?
**A.** -0.065

**Q.** What about the Bliss excess [11] of the same compound?
**A.** -0.0866

**Q.** And the Bliss excess [12]?
**A.** -0.0867

**Q.** And the Bliss excess [5]?
**A.** -0.0501

**Q.** And the Bliss excess [13]?
**A.** -0.0689

**Q.** What about the Bliss excess [14] of the same compound?
**A.** -0.0377

**Q.** What about the Bliss excess [15] of the same compound?
**A.** -0.029

**Q.** And the Bliss excess (SK-N-DZ (Neuroblastoma))?
**A.** -0.0375

**Q.** For N#Cc1cnc(Nc2cc(NC[C@H]3CNCCO3)c(C(F)(F)F)cn2)cn1 [SRA737] + C=CCn1c(=O)c2cnc(Nc3ccc(N4CCN(C)CC4)cc3)nc2n1-c1cccc(C(C)(C)O)n1 [AZD1775] (first compound max 10 µM, partner max 1 µM), which Bliss excess [1] is on record?
**A.** 0.0171

**Q.** What about the Bliss excess [2] of the same compound?
**A.** 0.121

**Q.** And the Bliss excess [3]?
**A.** -0.0073

**Q.** And the Bliss excess [4]?
**A.** 0.0473

**Q.** And the Bliss excess [5]?
**A.** 0.155

**Q.** What does the source list for N#Cc1cnc(Nc2cc(NC[C@H]3CNCCO3)c(C(F)(F)F)cn2)cn1 [SRA737] + CCc1c2c(nc3ccc(O)cc13)-c1cc3c(c(=O)n1C2)COC(=O)[C@]3(O)CC [SN-38] (first compound max 10 µM, 7x7, partner max 0.3 µM)?
**A.** Bliss excess [1]: -0.0387; Bliss excess [2]: 0.0599; Bliss excess [3]: -0.0418; Bliss excess [4]: -0.0209; Bliss excess [5]: -0.0632

**Q.** How did the Bliss excess [1] turn out when N#Cc1cnc(Nc2cc(NC[C@H]3CNCCO3)c(C(F)(F)F)cn2)cn1 [SRA737] + Nc1ccn([C@@H]2O[C@H](CO)[C@@H](O)C2(F)F)c(=O)n1 [Gemcitabine] (first compound max 10 µM, 7x7, partner max 0.3 µM) was run?
**A.** 0.0488

**Q.** What about the Bliss excess [2] of the same compound?
**A.** 0.123

**Q.** What about the Bliss excess [3] of the same compound?
**A.** -0.0041

**Q.** And the Bliss excess [4]?
**A.** 0.0312

**Q.** What about the Bliss excess [5] of the same compound?
**A.** 0.0064

**Q.** How did the Bliss excess [1] turn out when N#Cc1cnc(Nc2cc(NC[C@H]3CNCCO3)c(C(F)(F)F)cn2)cn1 [SRA737] + O=c1[nH]cc(F)c(=O)[nH]1 [5-Fluorouracil] (first compound max 10 µM, 7x7, partner max 20 µM) was run?
**A.** 0.0235

**Q.** And the Bliss excess [2]?
**A.** 0.0691

**Q.** What about the Bliss excess [3] of the same compound?
**A.** -0.0189

**Q.** And the Bliss excess [4]?
**A.** -0.0445

**Q.** And the Bliss excess [5]?
**A.** -0.0447

**Q.** What does the source list for C[C@@H](c1ccc2nccn2c1)n1nnc2ncc(-c3cnn(C)c3)nc21 [Savolitinib] + CC1(C)CCC(CN2CCN(c3ccc(C(=O)NS(=O)(=O)c4ccc(NCC5CCOCC5)c([N+](=O)[O-])c4)c(Oc4cnc5[nH]ccc5c4)c3)CC2)=C(c2ccc(Cl)cc2)C1 [Venetoclax] (first compound max 1 µM, 7x7, partner max 1 µM)?
**A.** Bliss excess [1]: -0.0616; Bliss excess [2]: -0.0159; Bliss excess [3]: -0.013; Bliss excess [6]: -0.0419; Bliss excess [7]: -0.0534; Bliss excess [4]: -0.0218; Bliss excess [8]: -0.0821; Bliss excess [9]: -0.0328; Bliss excess [10]: -0.0215; Bliss excess [11]: -0.0682; Bliss excess [12]: -0.0336; Bliss excess [5]: -0.0435; Bliss excess [13]: -0.0822; Bliss excess [14]: -0.0192; Bliss excess [15]: -0.0759; Bliss excess (SK-N-DZ (Neuroblastoma)): -0.0158

**Q.** What does the source list for C[C@@H](c1ccc2nccn2c1)n1nnc2ncc(-c3cnn(C)c3)nc21 [Savolitinib] + CN(CC[C@H](CSC1=CC=CC=C1)NC2=C(C=C(C=C2)S(=O)(=O)NC(=O)C3=CC=C(C=C3)N4CCC(CC4)[C@H](C5=CC=CC=C5C6=CC=C(C=C6)Cl)O)S(=O)(=O)C(F)(F)F)CCO [AZD4320] (first compound max 1 µM, 7x7, partner max 1 µM)?
**A.** Bliss excess [6]: 0.0144; Bliss excess [7]: -0.0354; Bliss excess [8]: -0.0597; Bliss excess [9]: -0.0288; Bliss excess [10]: -0.0212; Bliss excess [11]: -0.0534; Bliss excess [12]: -0.0589; Bliss excess [13]: -0.044; Bliss excess [14]: 0.0235; Bliss excess [15]: -0.0348; Bliss excess (SK-N-DZ (Neuroblastoma)): -0.0035

**Q.** How did the Bliss excess [1] turn out when C[C@@H](c1ccc2nccn2c1)n1nnc2ncc(-c3cnn(C)c3)nc21 [Savolitinib] + Cc1c2c(nn1C)CSCc1cc(n(C)n1)CSc1cc(c3ccccc3c1)OCCCc1c(C(=O)O)n(C)c3c-2c(Cl)ccc13 [AZD5991] (first compound max 1 µM, 7x7, partner max 1 µM) was run?
**A.** -0.0471

**Q.** And the Bliss excess [2]?
**A.** -0.0203

**Q.** What about the Bliss excess [3] of the same compound?
**A.** -0.0244

**Q.** And the Bliss excess [6]?
**A.** 0.0012

**Q.** What about the Bliss excess [7] of the same compound?
**A.** -0.0356

**Q.** And the Bliss excess [4]?
**A.** -0.132

**Q.** And the Bliss excess [8]?
**A.** 0.0005

**Q.** And the Bliss excess [9]?
**A.** -0.0112

**Q.** And the Bliss excess [10]?
**A.** 0.0026

**Q.** What about the Bliss excess [11] of the same compound?
**A.** -0.0595

**Q.** And the Bliss excess [12]?
**A.** -0.0199

**Q.** And the Bliss excess [5]?
**A.** -0.0321

**Q.** And the Bliss excess [13]?
**A.** -0.0338

**Q.** What about the Bliss excess [14] of the same compound?
**A.** -0.0293

**Q.** And the Bliss excess [15]?
**A.** -0.0455

**Q.** What about the Bliss excess (SK-N-DZ (Neuroblastoma)) of the same compound?
**A.** 0.002

Source: the supplement of paper PMC11061612
